Source: patent US20170094972A1, “Compounds and Compositions Having Knock-Down Activity Against Insect Pests” (priority 2015, published 2017)

Experiments:
Assay type in all cases: in vivo
[1] = tested on: Aedes aegypti; assay: 12 well plate knockdown test; conditions: 1 h, read-out: Aedes aegypti 1 hour % KD; for pest or weed control at 0.2 ppm: Rate 0.2 PPM; for pest or weed control at 2 ppm: Rate 2 PPM; for pest or weed control at 20 ppm: Rate 20 PPM; for pest or weed control at 200 ppm: Rate 200 PPM
Experimental: (§1) The individual wells of a twelve (12) well tissue culture plates were treated with 100 μl of an ethanol solution containing a test compound at a defined concentration. Once the deposits were dry, five non-blood fed adult female Aedes aegypti or Anopheles stephensi (between two to five day old) were added to each well, and sustained with a 10% sucrose solution in a cotton wool plug. Assessment of the knockdown after 1 hour was carried out. Where multiple replicates of a treatment have been undertaken, the mean of those replicates is reported.

[2] = tested on: Anopheles stephensi; assay: 12 well plate knockdown test; conditions: 1 h, read-out: Anopheles stephensi 1 hour % KD; for pest or weed control at 0.2 ppm: Rate 0.2 PPM; for pest or weed control at 2 ppm: Rate 2 PPM; for pest or weed control at 20 ppm: Rate 20 PPM; for pest or weed control at 200 ppm: Rate 200 PPM
Experimental: as §1

[3] = tested on: Anopheles stephensi; assay: 6 well plate test, knockdown after 1 hour and mortality after 24 and 48 hours; parameters: KD: unit not given here; conditions: for KD: after 1 hour; for knockdown after 1 hour, Alone: Table B10
Experimental: The individual wells of six (6) well tissue culture plates were treated with […] of an ethanol solution containing a test compound at a defined concentration. Once the deposits were dry, ten non-blood fed adult female Anopheles stephensi (between two to five day old) were added to each well, and sustained with a 10% sucrose solution in a cotton wool plug. Assessment of the knockdown after 1 hour (Tables B1-B10), and mortality after 24 and 48 hours (Tables B1-B4) was carried out.
In case of multiple tests, the mean value is reported.

For `CCOC(=O)ON(C)C(=O)c1cnccc1C(F)(F)F` [I.9], the pest or weed control at 0.2 ppm [1] was 100%, the pest or weed control at 2 ppm [1] was 100% and the pest or weed control at 20 ppm [1] was 100%. For the same compound, the pest or weed control at 200 ppm [1] was 100%, the pest or weed control at 0.2 ppm [2] was 20% and the pest or weed control at 2 ppm [2] was 100%. For the same compound, the pest or weed control at 20 ppm [2] was 100% and the pest or weed control at 200 ppm [2] was 100%.
Work on `CC(C)CC(=O)ON(C)C(=O)c1cnccc1C(F)(F)F` [I.10] yielded a pest or weed control at 0.2 ppm [1] of 100%, a pest or weed control at 2 ppm [1] of 100% and a pest or weed control at 20 ppm [1] of 100%. The pest or weed control at 200 ppm [1] was 100%, the pest or weed control at 0.2 ppm [2] was 40% and the pest or weed control at 2 ppm [2] was 60%. For the same compound, the pest or weed control at 20 ppm [2] was 100% and the pest or weed control at 200 ppm [2] was 100%.
`CC(C#N)NC(=O)c1cnccc1C(F)(F)F` (stereo not drawn) [I.11] was tested, and the pest or weed control at 0.2 ppm [1] was 100%, the pest or weed control at 2 ppm [1] was 100% and the pest or weed control at 20 ppm [1] was 100%. The pest or weed control at 200 ppm [1] was 100%.
With `CC(C)NOC(=O)c1cnccc1C(F)(F)F` [I.12] the pest or weed control at 0.2 ppm [1] was 100%, the pest or weed control at 2 ppm [1] was 100% and the pest or weed control at 20 ppm [1] was 100%. For the same compound, the pest or weed control at 200 ppm [1] was 100%, the pest or weed control at 0.2 ppm [2] was 0% and the pest or weed control at 2 ppm [2] was 80%. For the same compound, the pest or weed control at 20 ppm [2] was 100% and the pest or weed control at 200 ppm [2] was 100%.
Compound `O=C(NC(=O)c1cnccc1C(F)(F)F)c1cccs1` [I.13] has a pest or weed control at 0.2 ppm [1] of 0%, a pest or weed control at 2 ppm [1] of 100% and a pest or weed control at 20 ppm [1] of 100%. The pest or weed control at 200 ppm [1] was 100%, the pest or weed control at 0.2 ppm [2] was 0% and the pest or weed control at 2 ppm [2] was 60%. It also gave a pest or weed control at 20 ppm [2] of 100% and a pest or weed control at 200 ppm [2] of 100%.
Work on `N/C(=N/C(=O)c1cnccc1C(F)(F)F)c1ncccn1` [I.14] yielded a pest or weed control at 0.2 ppm [1] of 0%, a pest or weed control at 2 ppm [1] of 100% and a pest or weed control at 20 ppm [1] of 100%. The pest or weed control at 200 ppm [1] was 100%, the pest or weed control at 0.2 ppm [2] was 40% and the pest or weed control at 2 ppm [2] was 40%. It also gave a pest or weed control at 20 ppm [2] of 100% and a pest or weed control at 200 ppm [2] of 100%.
`CCN(Cc1ccccc1)C(=O)c1cnccc1C(F)(F)F` [I.15] was tested, and the pest or weed control at 0.2 ppm [1] was 100%, the pest or weed control at 2 ppm [1] was 100% and the pest or weed control at 20 ppm [1] was 100%. For the same compound, the pest or weed control at 200 ppm [1] was 100%, the pest or weed control at 0.2 ppm [2] was 0% and the pest or weed control at 2 ppm [2] was 0%. It also gave a pest or weed control at 20 ppm [2] of 0% and a pest or weed control at 200 ppm [2] of 0%.
With `CCOCn1c(-c2ccc(Cl)cc2)c(C#N)c(Br)c1C(F)(F)F` [chlorfenapyr] the 24 hr mort ([3]; Table B1, 0.0625 ppm alone) was 0.0, the 48 hr mort ([3]; Table B1, 0.0625 ppm alone) was 0.0 and the KD ([3]; Table B1, 0.0625 ppm alone) was 0.0. The 24 hr mort ([3]; Table B1, 0.125 ppm alone) was 0.0, the 48 hr mort ([3]; Table B1, 0.125 ppm alone) was 0.0 and the KD ([3]; Table B1, 0.125 ppm alone) was 0.0. The 24 hr mort ([3]; Table B1, 0.25 ppm alone) was 0.0, the 48 hr mort ([3]; Table B1, 0.25 ppm alone) was 3.3 and the KD ([3]; Table B1, 0.25 ppm alone) was 0.0. The 24 hr mort ([3]; Table B1, 0.5 ppm alone) was 0.0, the 48 hr mort ([3]; Table B1, 0.5 ppm alone) was 16.7 and the KD ([3]; Table B1, 0.5 ppm alone) was 0.0. For the same compound, the 24 hr mort ([3]; Table B1, 1 ppm alone) was 6.7, the 48 hr mort ([3]; Table B1, 1 ppm alone) was 50.0 and the KD ([3]; Table B1, 1 ppm alone) was 0.0. The 24 hr mort ([3]; Table B1, 2 ppm alone) was 40.0, the 48 hr mort ([3]; Table B1, 2 ppm alone) was 90.0 and the KD ([3]; Table B1, 2 ppm alone) was 0.0. It also gave a 24 hr mort ([3]; Table B2, 0.0625 ppm alone) of 0.0, a 48 hr mort ([3]; Table B2, 0.0625 ppm alone) of 0.0 and a KD ([3]; Table B2, 0.0625 ppm alone) of 0.0. It also gave a 24 hr mort ([3]; Table B2, 0.125 ppm alone) of 0.0, a 48 hr mort ([3]; Table B2, 0.125 ppm alone) of 0.0 and a KD ([3]; Table B2, 0.125 ppm alone) of 0.0. For the same compound, the 24 hr mort ([3]; Table B2, 0.25 ppm alone) was 0.0, the 48 hr mort ([3]; Table B2, 0.25 ppm alone) was 0.0 and the KD ([3]; Table B2, 0.25 ppm alone) was 0.0. The 24 hr mort ([3]; Table B2, 0.5 ppm alone) was 0.0, the 48 hr mort ([3]; Table B2, 0.5 ppm alone) was 0.0 and the KD ([3]; Table B2, 0.5 ppm alone) was 0.0. The 24 hr mort ([3]; Table B2, 1 ppm alone) was 20.0, the 48 hr mort ([3]; Table B2, 1 ppm alone) was 40.0 and the KD ([3]; Table B2, 1 ppm alone) was 0.0. It also gave a 24 hr mort ([3]; Table B2, 2 ppm alone) of 50.0, a 48 hr mort ([3]; Table B2, 2 ppm alone) of 100.0 and a KD ([3]; Table B2, 2 ppm alone) of 0.0.
`CCN(CC)c1nc(C)cc(OP(=S)(OC)OC)n1` [pirimiphos-methyl] gave a 24 hr mort ([3]; Table B3, 0.03125 ppm alone) of 0.0, a 48 hr mort ([3]; Table B3, 0.03125 ppm alone) of 0.0 and a KD ([3]; Table B3, 0.03125 ppm alone) of 0.0. The 24 hr mort ([3]; Table B3, 0.0625 ppm alone) was 0.0, the 48 hr mort ([3]; Table B3, 0.0625 ppm alone) was 0.0 and the KD ([3]; Table B3, 0.0625 ppm alone) was 0.0. It also gave a 24 hr mort ([3]; Table B3, 0.125 ppm alone) of 0.0, a 48 hr mort ([3]; Table B3, 0.125 ppm alone) of 0.0 and a KD ([3]; Table B3, 0.125 ppm alone) of 0.0. For the same compound, the 24 hr mort ([3]; Table B3, 0.25 ppm alone) was 50.0, the 48 hr mort ([3]; Table B3, 0.25 ppm alone) was 50.0 and the KD ([3]; Table B3, 0.25 ppm alone) was 0.0. It also gave a 24 hr mort ([3]; Table B3, 0.5 ppm alone) of 100.0, a 48 hr mort ([3]; Table B3, 0.5 ppm alone) of 100.0 and a KD ([3]; Table B3, 0.5 ppm alone) of 0.0. The 24 hr mort ([3]; Table B3, 1 ppm alone) was 100.0, the 48 hr mort ([3]; Table B3, 1 ppm alone) was 100.0 and the KD ([3]; Table B3, 1 ppm alone) was 10.0. The “knockdown after 1 hour, Alone” value ([3]; 0.0625 ppm) was 0.0, the “knockdown after 1 hour, Alone” value ([3]; 0.125 ppm) was 0.0 and the “knockdown after 1 hour, Alone” value ([3]; 0.25 ppm) was 50.0. For the same compound, the “knockdown after 1 hour, Alone” value ([3]; 0.5 ppm) was 100.0 and the “knockdown after 1 hour, Alone” value ([3]; 1 ppm) was 100.0.
